Assays:
PC3 xenografts = experiment: In vivo click (pre-targeting) biodistribution of [111In]In-DOTA-Tz in PC3-xenografts bearing mice pretargeted with TCO-PEG4-AR; design: Biodistribution: Blood: dose or concentration left out as unconfirmed; conditions: 1 h p.i.
Experimental: from whole animal body. Blood samples were taken by cardiac puncture at sacrifice. Tissue samples
Biodistribution in PC3 bearing mice
Membrane Matrix (BD Sciences) under anaesthesia with 2% isoflurane. The animals were kept under
volume of approximate 390 ± 190 mm3. Animals were allocated into treatment groups using a complete
carried out on groups of 8 mice (n = 4).
At appropriate time points (15 min,
Immediately after injection,
DOTA-Tz (0.1mL, 50 – 75 µCi µCi).
assumed to be due to total excretion. The animals were weighed and dissected. Then, tissues of interest
radioactivity and weighted.

[1] = Biodistribution of [111In]In-radiocomplexes in healthy mice; assay type: in vivo
Experimental: We performed a biodistribution study of the four [^111In]In-radiocomplexes in healthy mice to determine the clearance rate from systemic blood circulation and the tissue/organ distribution over time. […] The urinary tract was identified as the main excretory pathway since the highest % I.D./g values were found in the kidneys for all the radiocomplexes, associated to rapid radioactivity excretion both at 15 min and 1 h p.i. […] page 9: from whole animal body. Blood samples were taken by cardiac puncture at sacrifice. […] The animals were kept under […] volume of approximate 390 ± 190 mm3. […] […] carried out on groups of 8 mice (n = 4). […] The animals were weighed and dissected.

[2] = Lipophilicity, octanol-water partition coefficient by shake-flask method; assay type: physicochemical; conditions: 1-octanol / PBS pH 7.4
Experimental: Given the limited effect of the pegylated linker on the plasmatic half-life, we focused our successive in vitro stability studies and lipophilicity measurements on the two non-pegylated derivatives [^111In]In-DOTA-Tz and [^111In]In-DOTAGA-Tz. The lipophilicity was evaluated by determination of their partition coefficient log Po/w using the shake-flask method. […] In HS the stability was very good up to 2 h of incubation, but after 4 h of incubation, the degradation started to be quite important with 50 and 30% of the compound degraded for [^111In]In-DOTA-Tz and [^111In]In-DOTAGA-Tz, respectively. […] Taken together, excellent stability of the two [^111In]In-radiocomplexes was observed both in CCM and HS at 37°C for incubation times up to 2 h. […]
Lipophilicity Determination
After phase separation, aliquots

[3] = In vivo stability: HPLC analysis of urine of injected mice; conditions: mouse urine, 1 h p.i.
Experimental: To assess the in vivo stability of the radiocomplexes, samples of blood and urine were collected from the mice injected with the compounds and analyzed by HPLC.
Blood samples from mice injected with the tested radiocomplexes, collected at sacrifice time, were
centrifuged, the serum separated and treated with ethanol (1:2 proportion) to precipitate the proteins
and the supernatant was analyzed by HPLC for stability evaluation. The urine samples were centrifuged
at 3000 rpm for 10 min and the supernatant was also analyzed by HPLC.

[4] = In vitro stability of [111In]In-radiocomplexes in cell culture media, human serum and PBS at 37 °C (HPLC); assay type: in vitro ADME
Experimental: Given the limited effect of the pegylated linker on the plasmatic half-life, we focused our successive in vitro stability studies and lipophilicity measurements on the two non-pegylated derivatives [^111In]In-DOTA-Tz and [^111In]In-DOTAGA-Tz. The lipophilicity was evaluated by determination of their partition coefficient log Po/w using the shake-flask method. […] In HS the stability was very good up to 2 h of incubation, but after 4 h of incubation, the degradation started to be quite important with 50 and 30% of the compound degraded for [^111In]In-DOTA-Tz and [^111In]In-DOTAGA-Tz, respectively. […] Taken together, excellent stability of the two [^111In]In-radiocomplexes was observed both in CCM and HS at 37°C for incubation times up to 2 h.
[111In]In-Radiocomplexes: In vitro and in vivo stability
radiolabelled compound dissolved in different media. For the evaluation of the stability in PBS, Cell
times the volume of the desired medium.
The radiocomplexes incubated in Human
The urine samples were centrifuged
during six days by ITLC analysis.

[5] = In Vivo Click reaction: PC3 xenograft mice pretargeted with TCO-PEG4-AR (4 h prior administration, 1 nM)
[6] = In Vivo Click reaction: PC3 xenograft mice pretargeted with TCO-PEG4-AR (4 h prior administration, 1 nM), listed as [^111In]In-DOTA-Tz
[7] = in vivo click chemistry, pretargeted with TCO-PEG4-AR

O=C([O-])CN1CCN(CC(=O)[O-])CCN(CC(=O)NCc2ccc(-c3nncnn3)cc2)CCN(CC(=O)[O-])CC1.[111In+3] [[111In]In-DOTA-Tz]
Biodistribution: Blood (PC3 xenografts; In Vivo Click reaction: PC3 xenograft mice pretargeted with TCO-PEG4-AR (4 h prior administration)): 0.28 ± 0.09 % I.D./g | Biodistribution: Bone (PC3 xenografts; [5]): 0.21 ± 0.09 % I.D./g | Biodistribution: Heart (PC3 xenografts; [5]): 0.12 ± 0.04 % I.D./g | Biodistribution: Intestine (PC3 xenografts; [5]): 0.12 ± 0.04 % I.D./g | Biodistribution: Kidney (PC3 xenografts; [5]): 1.5 ± 0.3 % I.D./g | Biodistribution: Liver (PC3 xenografts; [5]): 0.3 ± 0.1 % I.D./g | Biodistribution: Lung (PC3 xenografts; [5]): 0.26 ± 0.06 % I.D./g | Biodistribution: Muscle (PC3 xenografts; [5]): 0.15 ± 0.11 % I.D./g | Biodistribution: Spleen (PC3 xenografts; [5]): 0.11 ± 0.04 % I.D./g | Biodistribution: Stomach (PC3 xenografts; [5]): 0.09 ± 0.06 % I.D./g | Biodistribution: Tumour (PC3 xenografts; [5]): 0.78 ± 0.54 % I.D./g | Biodistribution: Kidney (PC3 xenografts; [6]): 1.5 % I.D./g | Biodistribution: Tumour (PC3 xenografts; [6]): 0.78 % I.D./g | tumor/blood ratio (PC3 xenografts; [7]): 2.8 | tumor/muscle ratio (PC3 xenografts; [7]): 5.2 | Biodistribution: Blood ([1]; 15 min p.i.): 2.5 ± 1.4 % I.D./g | Biodistribution: Bone ([1]; 15 min p.i.): 1.0 ± 0.7 % I.D./g | Biodistribution: Heart ([1]; 15 min p.i.): 0.8 ± 0.5 % I.D./g | Biodistribution: Intestine ([1]; 15 min p.i.): 0.3 ± 0.2 % I.D./g | Biodistribution: Kidney ([1]; 15 min p.i.): 5.2 ± 3.3 % I.D./g | Biodistribution: Liver ([1]; 15 min p.i.): 2.3 ± 0.8 % I.D./g | Biodistribution: Lung ([1]; 15 min p.i.): 1.8 ± 0.9 % I.D./g | Biodistribution: Muscle ([1]; 15 min p.i.): 1.1 ± 0.9 % I.D./g | Biodistribution: Pancreas ([1]; 15 min p.i.): 0.4 ± 0.2 % I.D./g | Biodistribution: Spleen ([1]; 15 min p.i.): 0.8 ± 0.2 % I.D./g | Biodistribution: Stomach ([1]; 15 min p.i.): 0.3 ± 0.2 % I.D./g | Excretion ([1]; 15 min p.i.): 58.3 ± 25.3 % I.D. | Biodistribution: Blood ([1]; 1 h p.i.): 0.32 ± 0.07 % I.D./g | Biodistribution: Bone ([1]; 1 h p.i.): 0.12 ± 0.03 % I.D./g | Biodistribution: Heart ([1]; 1 h p.i.): 0.11 ± 0.02 % I.D./g | Biodistribution: Intestine ([1]; 1 h p.i.): 0.05 ± 0.01 % I.D./g | Biodistribution: Kidney ([1]; 1 h p.i.): 1.6 ± 0.3 % I.D./g | Biodistribution: Liver ([1]; 1 h p.i.): 0.29 ± 0.09 % I.D./g | Biodistribution: Lung ([1]; 1 h p.i.): 0.29 ± 0.03 % I.D./g | Biodistribution: Muscle ([1]; 1 h p.i.): 0.08 ± 0.01 % I.D./g | Biodistribution: Pancreas ([1]; 1 h p.i.): 0.06 ± 0.01 % I.D./g | Biodistribution: Spleen ([1]; 1 h p.i.): 0.09 ± 0.01 % I.D./g | Biodistribution: Stomach ([1]; 1 h p.i.): 0.09 ± 0.05 % I.D./g | Excretion ([1]; 1 h p.i.): 91.8 ± 1.0 % I.D. | Excretion ([1]; 1 h p.i., listed as [^111In]In-DOTA-Tz): above 90 % I.D. | log Po/w [2]: −1.60 ± 0.13 | in vivo stability / metabolization (urine HPLC) [3]: eliminated without undergoing any metabolization or degradation | stability in PBS ([4]; PBS, 24 h at 37°C): > 85% | level of degradation in CCM ([4]; cell culture media, 37°C, after 24 h): 70% | stability in CCM ([4]; cell culture media, 37°C, first 4 h of incubation): very good stability | stability in HS ([4]; human serum, 37°C, 24 h of incubation): almost completely degraded | compound degraded in HS ([4]; human serum, 37°C, after 4 h of incubation): 50% | stability in HS ([4]; human serum, 37°C, up to 2 h of incubation): very good

— PMC8225959, “Clickable Radiocomplexes With Trivalent Radiometals for Cancer Theranostics: In vitro and in vivo Studies” (Frontiers in Medicine, 2021)
